Laboratory results taken from US11479551B2, “MTA-cooperative PRMT5 inhibitors” (Mirati Therapeutics, Inc., priority 2019, dated 2022).
Like-named read-outs stand apart in the source and are kept apart here.

Target: PRMT5/MEP50 complex (Homo sapiens (Human), UniProt O14744)
Assay: PRMT5:MEP50 FlashPlate Assay (histone H4 peptide substrate, plus and minus MTA)
Assay type: biochemical
Method: The PRMT5 inhibitory activity of compounds of the present invention was determined using either a PRMT5:MEP50 FlashPlate Assay (Reaction Biology Corporation) or a PRMT5:MEP50 HotSpot Assay (Reaction Biology Corporation).
1. PRMT5:MEP50 FlashPlate Assay

[1] = IC50 + 2 μM MTA (nM), in the presence of 2 μM MTA
[2] = in the absence of MTA, read-out: IC50

Sequence of PRMT5/MEP50 complex (O14744 2-637): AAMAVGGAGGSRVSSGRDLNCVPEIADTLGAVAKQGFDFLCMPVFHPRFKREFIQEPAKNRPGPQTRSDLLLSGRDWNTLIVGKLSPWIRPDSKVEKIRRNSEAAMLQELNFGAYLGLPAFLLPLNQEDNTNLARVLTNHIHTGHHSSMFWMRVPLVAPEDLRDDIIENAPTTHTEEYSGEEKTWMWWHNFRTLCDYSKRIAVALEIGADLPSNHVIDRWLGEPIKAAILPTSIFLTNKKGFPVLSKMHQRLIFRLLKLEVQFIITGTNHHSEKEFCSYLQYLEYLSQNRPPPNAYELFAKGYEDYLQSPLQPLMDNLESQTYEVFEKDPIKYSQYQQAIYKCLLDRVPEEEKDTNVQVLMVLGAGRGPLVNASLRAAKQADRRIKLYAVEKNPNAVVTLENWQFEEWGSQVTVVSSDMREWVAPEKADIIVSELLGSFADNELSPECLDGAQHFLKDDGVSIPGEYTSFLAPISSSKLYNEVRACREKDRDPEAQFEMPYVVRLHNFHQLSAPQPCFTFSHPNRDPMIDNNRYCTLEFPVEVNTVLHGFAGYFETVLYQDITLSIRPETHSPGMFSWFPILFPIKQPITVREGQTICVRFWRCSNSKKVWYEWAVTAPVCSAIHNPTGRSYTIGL
Sequence of PRMT5/MEP50 complex (Q9BQA1 2-342 partner): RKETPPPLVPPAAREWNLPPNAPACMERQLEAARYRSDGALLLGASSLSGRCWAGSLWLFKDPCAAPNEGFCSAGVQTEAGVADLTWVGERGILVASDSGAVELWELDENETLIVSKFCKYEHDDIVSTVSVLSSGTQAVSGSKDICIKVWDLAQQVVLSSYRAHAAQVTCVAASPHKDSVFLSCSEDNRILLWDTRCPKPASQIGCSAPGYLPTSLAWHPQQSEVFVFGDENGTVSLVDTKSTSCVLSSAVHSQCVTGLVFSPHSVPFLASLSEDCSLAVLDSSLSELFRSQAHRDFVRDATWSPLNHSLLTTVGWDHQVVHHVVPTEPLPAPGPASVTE

Row | SMILES | IC50 [1] [nM] | IC50 [2] [nM]
1 | CCN1CCn2ncc(-c3ccc4c(=O)[nH]nc(CN)c4c3)c2C1 [Example 4-80, 4-(aminomethyl)-6-(5-ethyl-4,5,6,7-tetrahydropyrazolo[1,5-a]pyrazin-3-yl)phthalazin-1(2H)-one] | 58 | 1570
2 | CC(C)N1CCn2ncc(-c3ccc4c(=O)[nH]nc(CN)c4c3)c2C1 [Example 4-81, 4-(aminomethyl)-6-(5-isopropyl-4,5,6,7-tetrahydropyrazolo[1,5-a]pyrazin-3-yl)phthalazin-1(2H)-one] | 18 | 826
3 | NCc1n[nH]c(=O)c2ccc(-c3cnn4c3CN(C3CC3)CC4)cc12 [Example 4-82, 4-(aminomethyl)-6-(5-cyclopropyl-4,5,6,7 tetrahydropyrazolo[1,5-a]pyrazin-3-yl)phthalazin-1(2H)-one] | 28 | 1340
4 | CC(=O)N1CCn2ncc(-c3ccc4c(=O)[nH]nc(CN)c4c3)c2C1 [Example 4-84, 6-(5-acetyl-4,5,6,7-tetrahydropyrazolo[1,5-a]pyrazin-3-yl)-4-(aminomethyl)phthalazin-1(2H)-one] | 93 | 4040
5 | NCc1n[nH]c(=O)c2ccc(-c3cnn4c3CN(C(=O)C3CC3)CC4)cc12 [Example 4-85, 4-(aminomethyl)-6-(5-(cyclopropanecarbonyl)-4,5,6,7-tetrahydropyrazolo[1,5-a]pyrazin-3-yl)phthalazin-1(2H)-one] | 29 | 1910
6 | NCc1n[nH]c(=O)c2ccc(-c3cnn4c3CN(C(=O)C3CCC3)CC4)cc12 [Example 4-86, 4-(aminomethyl)-6-(5-(cyclobutanecarbonyl)-4,5,6,7-tetrahydropyrazolo[1,5-a]pyrazin-3-yl)phthalazin-1(2H)-one] | 11 | 731
7 | NCc1n[nH]c(=O)c2ccc(-c3cnn4c3CN(C(=O)C3CCCC3)CC4)cc12 [Example 4-87, 4-(aminomethyl)-6-(5-(cyclopentanecarbonyl)-4,5,6,7-tetrahydropyrazolo[1,5-a]pyrazin-3-yl)phthalazin-1(2H)-one] | 22 | 1590
8 | NCc1n[nH]c(=O)c2ccc(-c3cnn4c3CN(C(=O)C3CCCCC3)CC4)cc12 [Example 4-88, 4-(aminomethyl)-6-(5-(cyclohexanecarbonyl)-4,5,6,7-tetrahydropyrazolo[1,5-a]pyrazin-3-yl)phthalazin-1(2H)-one] | 45 | 1710
9 | NCc1n[nH]c(=O)c2ccc(-c3cnn4c3CN(C(=O)C35CC(C3)C5)CC4)cc12 [Example 4-89, 4-(aminomethyl)-6-(5-(bicyclo[1.1.1]pentane-1-carbonyl)-4,5,6,7-tetrahydropyrazolo[1,5-a]pyrazin-3-yl)phthalazin-1(2H)-one] | 64 | 1220
10 | NCc1n[nH]c(=O)c2ccc(-c3cnn4c3CN(C(=O)c3ccccc3)CC4)cc12 [Example 4-90, 4-(aminomethyl)-6-(5-benzoyl-4,5,6,7-tetrahydropyrazolo[1,5-a]pyrazin-3-yl)phthalazin-1(2H)-one] | 82 | 2730
11 | Cn1ncc(-c2ccc3c(=O)[nH]nc(CN)c3c2)c1-c1cccc(F)c1 [Example 4-91, 4-(aminomethyl)-6-(5-(3-fluorophenyl)-1-methyl-1H-pyrazol-4-yl)phthalazin-1(2H)-one] | 16 | 249
12 | Cn1ncc(-c2ccc3c(=O)[nH]nc(CN)c3c2)c1-c1cccc(Cl)c1 [Example 4-92, 4-(aminomethyl)-6-(5-(3-chlorophenyl)-1-methyl-1H-pyrazol-4-yl)phthalazin-1(2H)-one] | 3.5 | 137
13 | Cn1ncc(-c2ccc3c(=O)[nH]nc(CN)c3c2)c1-c1ccc(F)cc1 [Example 4-95, 4-(aminomethyl)-6-(5-(4-fluorophenyl)-1-methyl-1H-pyrazol-4-yl)phthalazin-1(2H)-one] | 4.9 | 228
14 | Cc1ccc(-c2c(-c3ccc4c(=O)[nH]nc(CN)c4c3)cnn2C)cc1 [Example 4-97, 4-(aminomethyl)-6-(1-methyl-5-(p-tolyl)-1H-pyrazol-4-yl)phthalazin-1(2H)-one] | 1.6 | 49
15 | Cc1ccc(-c2c(-c3ccc4c(=O)[nH]nc(CN)c4c3)cnn2C)cn1 [Example 4-99, 4-(aminomethyl)-6-(1-methyl-5-(6-methylpyridin-3-yl)-1H-pyrazol-4-yl)phthalazin-1(2H)-one] | 15 | 547
16 | NCc1n[nH]c(=O)c2ccc(-c3cncn3Cc3ccccc3)cc12 [Example 4-108, 4-(aminomethyl)-6-(1-benzyl-1H-imidazol-5-yl)phthalazin-1(2H)-one] | 900 | 8650
17 | Cc1ncc(-c2ccc3c(=O)[nH]nc(CN)c3c2)n1CC#N [Example 4-109, 2-(5-(4-(aminomethyl)-1-oxo-1,2-dihydrophthalazin-6-yl)-2-methyl-1H-imidazol-1-yl)acetonitrile] | 120 | 4870
18 | Cc1nc2cncc(-c3ccc4c(=O)[nH]nc(CN)c4c3)c2o1 [Example 4-110, 4-(aminomethyl)-6-(2-methyloxazolo[4,5-c]pyridin-7-yl)phthalazin-1(2H)-one] | 1000 | 
19 | NCc1n[nH]c(=O)c2ccc(-c3cncc([S+]([O-])c4ccccc4)c3)cc12 (stereo not drawn) [Example 4-111, 4-(aminomethyl)-6-(5-(phenylsulfinyl)pyridin-3-yl)phthalazin-1(2H)-one] | 12 | 472
20 | NCc1n[nH]c(=O)c2ccc(C3CCCC3)cc12 [Example 5-1, 4-(aminomethyl)-6-cyclopentylphthalazin-1(2H)-one] | 72000 | > 100000

The next lines start with the values.

Row | IC50 [1] [nM] | IC50 [2] [nM] | SMILES
21 | 5800 | > 100000 | NCc1n[nH]c(=O)c2ccc(-n3ccnc3)cc12 [Example 6-1, 4-(aminomethyl)-6-imidazol-1-yl-2H-phthalazin-1-one]
22 | > 100000 | > 100000 | CCCNc1ccc2c(CN)n[nH]c(=O)c2c1 [Example 6-2]
23 | 9400 | > 100000 | NCc1n[nH]c(=O)c2cc(Nc3ccccc3)ccc12 [Example 6-3, 4-(aminomethyl)-7-anilino-2H-phthalazin-1-one]
24 | 19000 |  | NCc1n[nH]c(=O)c2cc(NCc3ccccc3)ccc12 [Example 6-4, 4-(aminomethyl)-7-(benzylamino)-2H-phthalazin-1-one]
25 | > 100000 | > 100000 | NCc1n[nH]c(=O)c2ccc(N3CCOCC3)cc12 [Example 6-5, 4-(aminomethyl)-6-morpholino-2H-phthalazin-1-one]
26 | 490 | 11200 | NCc1n[nH]c(=O)c2ccc(-c3cncc(Oc4ccncc4)c3)cc12 [Example 7-1, 4-(aminomethyl)-6-(5-(pyridin-4-yloxy)pyridin-3-yl)phthalazin-1(2H)-one]
27 | 16 | 246 | N#Cc1ccccc1Oc1cncc(-c2ccc3c(=O)[nH]nc(CN)c3c2)c1 [Example 7-2, 2-((5-(4-(aminomethyl)-1-oxo-1,2-dihydrophthalazin-6-yl)pyridin-3-yl)oxy)benzonitrile]
28 | 15 | 388 | NCc1n[nH]c(=O)c2ccc(-c3cncc(Oc4ccc(F)cc4)c3)cc12 [Example 7-3, 4-(aminomethyl)-6-(5-(4-fluorophenoxy)pyridin-3-yl)phthalazin-1(2H)-one]
29 | 5.6 | 151 | NCc1n[nH]c(=O)c2ccc(-c3cncc(Oc4ccc(Cl)cc4)c3)cc12 [Example 7-4, 4-(aminomethyl)-6-(5-(4-chlorophenoxy)pyridin-3-yl)phthalazin-1(2H)-one]
30 | 2 | 64 | Cc1ccc(Oc2cncc(-c3ccc4c(=O)[nH]nc(CN)c4c3)c2)cc1 [Example 7-5, 4-(aminomethyl)-6-(5-(p-tolyloxy)pyridin-3-yl)phthalazin-1(2H)-one]
31 | 18 | 577 | N#Cc1ccc(Oc2cncc(-c3ccc4c(=O)[nH]nc(CN)c4c3)c2)cc1 [Example 7-6, 4-((5-(4-(aminomethyl)-1-oxo-1,2-dihydrophthalazin-6-yl)pyridin-3-yl)oxy)benzonitrile]
32 | 47 | 1650 | N#Cc1ccc(F)cc1-c1cncc(-c2ccc3c(=O)[nH]nc(CN)c3c2)c1 [Example 8-1, 2-(5-(4-(aminomethyl)-1-oxo-1,2-dihydrophthalazin-6-yl)pyridin-3-yl)-4-fluorobenzonitrile]
33 | 36 | 3150 | N#Cc1ccc(-c2cncc(-c3ccc4c(=O)[nH]nc(CN)c4c3)c2)c(C#N)c1 [Example 8-2, 4-(5-(4-(aminomethyl)-1-oxo-1,2-dihydrophthalazin-6-yl)pyridin-3-yl)isophthalonitrile]
34 | 2.3 | 237 | COc1ccc(-c2cncc(-c3ccc4c(=O)[nH]nc(CN)c4c3)c2)c(C#N)c1 [Example 8-3, 2-(5-(4-(aminomethyl)-1-oxo-1,2-dihydrophthalazin-6-yl)pyridin-3-yl)-5-methoxybenzonitrile]
35 | 3.1 | 313 | N#Cc1cc(Cl)ccc1-c1cncc(-c2ccc3c(=O)[nH]nc(CN)c3c2)c1 [Example 8-4, 2-(5-(4-(aminomethyl)-1-oxo-1,2-dihydrophthalazin-6-yl)pyridin-3-yl)-5-chlorobenzonitrile]
36 | 23 | 691 | N#Cc1cc(F)ccc1-c1cncc(-c2ccc3c(=O)[nH]nc(CN)c3c2)c1 [Example 8-5, 2-(5-(4-(aminomethyl)-1-oxo-1,2-dihydrophthalazin-6-yl)pyridin-3-yl)-5-fluorobenzonitrile]
37 | 52 | 2140 | N#Cc1ccc(Cl)cc1-c1cncc(-c2ccc3c(=O)[nH]nc(CN)c3c2)c1 [Example 8-6, 2-(5-(4-(aminomethyl)-1-oxo-1,2-dihydrophthalazin-6-yl)pyridin-3-yl)-4-chlorobenzonitrile]
